Among the test systems are K-562 leukemia; MCF7 breast; HT29 colon; HL-60(TB) leukemia; LOX IMVI melanoma; NCI/ADR-RES ovarian; SW-620 colon; U251 CNS; HS 578T breast; HCT-15 colon.
What all share (experiment): NCI-60 cell line screen, 48 h

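Following 48 hours of exposure in 96-well plates, responses at five concentrations were used to interpolate endpoints linearly. TGI is the concentration that stops growth completely.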

Take `COc1ccc2nc3ccc(OC)cc3c(SCCO)c2c1`: the TGI is above 100 µM with K-562 leukemia; above 62.3 µM in the test on MCF7 breast; above 48.2 µM in the test on HT29 colon; 19.9 µM in the test on HL-60(TB) leukemia; above 63 µM with LOX IMVI melanoma; above 80.3 µM in the test on NCI/ADR-RES ovarian. Also, the TGI in the test on SW-620 colon, in the test with U251 CNS, with HS 578T breast and in the test on HCT-15 colon was above 100 µM throughout.
In the case of `COc1ccc2nc3c([N+](=O)[O-])ccc4c3c(c2c1)NCCN4CCO`, the TGI amounted to 1.08 µM with K-562 leukemia; 3.19 µM in the test with MCF7 breast; 2.02 µM in the test on HT29 colon; 1.25 µM in the test on HL-60(TB) leukemia; 0.792 µM with LOX IMVI melanoma; 4.41 µM in the test on NCI/ADR-RES ovarian. Moreover, the TGI with SW-620 colon was 3.1 µM; in the test with U251 CNS, 1.85 µM; with HS 578T breast it was 2.79 µM; in the test with HCT-15 colon, 2.68 µM.
Turning to `NC(N)=N/N=C/c1nc2n(c1[N+](=O)[O-])CCS2`, the TGI in the test with MCF7 breast is above 100 µM; with HT29 colon it was above 100 µM; in the test on HL-60(TB) leukemia it was 55 µM; in the test with LOX IMVI melanoma, 92.6 µM; in the test on NCI/ADR-RES ovarian, above 100 µM; in the test with SW-620 colon, above 100 µM. The TGI is 89.3 µM with U251 CNS, above 100 µM with HS 578T breast and above 100 µM in the test with HCT-15 colon.
On to `O=CN1CCN(C(=O)c2ccc(Cl)cc2Cl)C1=S`, for which the TGI is above 100 µM in the test on K-562 leukemia; above 100 µM in the test on MCF7 breast; above 100 µM in the test on HT29 colon; 69.2 µM with HL-60(TB) leukemia; above 100 µM with LOX IMVI melanoma; above 100 µM with NCI/ADR-RES ovarian. The TGI in the test on SW-620 colon, in the test on U251 CNS, with HS 578T breast and with HCT-15 colon was above 100 µM in each case.
Turning to `Cc1cnc2sn(-c3ccc(Oc4ccccc4)cc3)c(=O)c2c1`, the TGI with MCF7 breast was 75.4 µM; with HT29 colon it was 39.6 µM; in the test with HL-60(TB) leukemia, above 100 µM; in the test with LOX IMVI melanoma, 81 µM; in the test with NCI/ADR-RES ovarian it was 55.7 µM; in the test on SW-620 colon, 70.7 µM. The TGI with U251 CNS came to 46 µM; in the test on HS 578T breast it was 50.9 µM; in the test on HCT-15 colon, 23.9 µM.
For `CCCCCCCCOC1C(O)C(O)C(O)C(O)C12CO2` (configuration not stated), the TGI with K-562 leukemia, with MCF7 breast, in the test with HT29 colon, in the test on HL-60(TB) leukemia, in the test with LOX IMVI melanoma and in the test with NCI/ADR-RES ovarian was above 100 µM in each case. Besides, the TGI in the test on SW-620 colon, in the test with U251 CNS, in the test on HS 578T breast and in the test with HCT-15 colon was above 100 µM each time.
Turning to `C[C@H](CCC(=O)NCCS(=O)(=O)O)[C@H]1CC[C@H]2[C@@H]3CC[C@@H]4C[C@H](O)CC[C@]4(C)[C@H]3CC[C@]12C`, the TGI in the test with K-562 leukemia, in the test on MCF7 breast, with HT29 colon, with HL-60(TB) leukemia, with LOX IMVI melanoma and with NCI/ADR-RES ovarian was above 100 µM each time. In addition, the TGI with SW-620 colon, in the test on U251 CNS, with HS 578T breast and in the test with HCT-15 colon was above 100 µM throughout.
Consider `CCCN(CCCC(NC(C)=O)C(=O)NCc1ccccc1)C(=O)N(CCCl)N=O` (configuration not stated), for which the TGI in the test with K-562 leukemia is 87.6 µM; in the test with MCF7 breast, above 100 µM; with HT29 colon, above 66.7 µM; in the test on HL-60(TB) leukemia it was 30.6 µM; with LOX IMVI melanoma, 31.5 µM; in the test on NCI/ADR-RES ovarian, above 100 µM. The TGI in the test with SW-620 colon was 49.7 µM; in the test with U251 CNS, 20.1 µM; with HS 578T breast, above 100 µM; in the test with HCT-15 colon it was 42.5 µM.
`CCC(CON(C)c1ccccc1)(SC)SC`: the TGI in the test with MCF7 breast, in the test on HT29 colon, with HL-60(TB) leukemia, with LOX IMVI melanoma, in the test with NCI/ADR-RES ovarian and in the test with SW-620 colon was above 100 µM each time. Also, the TGI with U251 CNS, in the test with HS 578T breast and with HCT-15 colon was above 100 µM throughout.
For `COC(=O)[C@@H]1[C@@H](c2cccc(Cl)c2)[C@H](C(=O)OC)C2(C[C@@]1(C)O)NCCS2` (some centres not stated), the TGI in the test on K-562 leukemia, in the test with MCF7 breast, with HT29 colon, in the test on LOX IMVI melanoma, in the test on NCI/ADR-RES ovarian and with SW-620 colon was above 100 µM in each case. In addition, the TGI in the test with U251 CNS, in the test with HS 578T breast and in the test on HCT-15 colon was above 100 µM throughout.
For `COC(=O)C1=C(C(=O)OC)C(C(=O)c2ccc(Br)cc2)N2N=C(c3ccc(Cl)cc3)C=CC12` (configuration not stated), the TGI in the test with K-562 leukemia, in the test with MCF7 breast, in the test with HL-60(TB) leukemia, in the test on LOX IMVI melanoma, in the test on NCI/ADR-RES ovarian and with SW-620 colon was above 100 µM throughout. Besides, the TGI with U251 CNS, in the test on HS 578T breast and in the test on HCT-15 colon was above 100 µM in each case.
`Cc1ccsc1/C=N/Nc1nc2ccccc2s1`: the TGI in the test on K-562 leukemia was 34.9 µM; with MCF7 breast it was 36 µM; in the test on HT29 colon it was above 100 µM; in the test with LOX IMVI melanoma, above 100 µM; with NCI/ADR-RES ovarian, 77.4 µM; in the test with SW-620 colon, 94.9 µM. For the same compound, the TGI in the test with U251 CNS was 28.3 µM; with HS 578T breast it was 78.2 µM; with HCT-15 colon, above 100 µM.
`CN(C)CCNC(=O)c1cccc2c(NCCN(C)C)c3ccccc3nc12`: the TGI with K-562 leukemia was 6.86 µM; with MCF7 breast it was 12.8 µM; in the test on HT29 colon, 5.34 µM; in the test on LOX IMVI melanoma, 4.75 µM; with NCI/ADR-RES ovarian, 25.7 µM; in the test on SW-620 colon, above 23.4 µM. Also, the TGI in the test with U251 CNS amounted to 8.72 µM; in the test on HS 578T breast it was 8.57 µM; in the test with HCT-15 colon, 24.7 µM.
As to `BrCCCCCOc1ccc(-c2c3ccccc3c(-c3ccc(OCCCCCBr)cc3)c3ccccc23)cc1`, the TGI in the test on K-562 leukemia, in the test on MCF7 breast, in the test with HT29 colon, in the test on HL-60(TB) leukemia, with NCI/ADR-RES ovarian and in the test with SW-620 colon was above 100 µM in each case. The TGI with U251 CNS, with HS 578T breast and in the test with HCT-15 colon was above 100 µM in each case.

Source of the values: PubChem BioAssay (NCI).
